15 molecules from patent US7846930B2, “Diaryl-substituted tetrahydroisoquinolines as histamine H3 receptor and serotonin transporter modulators” (Janssen Pharmaceutica NV, priority 2007, dated 2010) can be followed below.

Where a name gives a salt, the structure may show the parent alone.

Assay [1] addresses T1, cloned human H3 receptors, stably expressed in SK-N-MC cells (Homo sapiens, UniProt Q9Y5N1).
T1 construct: expressed in transfected cells
The experiment in a line: H3 receptor binding. As for the experimental part:
Binding of compounds to the cloned human H3 receptors, stably expressed in SK-N-MC cells, was performed as described by Barbier, A. J. et al. (Br. J. Pharmacol. 2004, 143(5), 649-661).

In assay [2] the target is T2, Rat brain SERT (Rattus norvegicus, UniProt P31652).
T2 construct: A rat brain without cerebellum (Zivic Laboratories, Inc.-Pittsburgh, Pa.) was homogenized; tissue Zivic Laboratories, Inc; host or cells: rat brain without cerebellum, membrane preparation
T2 sequence (P31652 whole entry): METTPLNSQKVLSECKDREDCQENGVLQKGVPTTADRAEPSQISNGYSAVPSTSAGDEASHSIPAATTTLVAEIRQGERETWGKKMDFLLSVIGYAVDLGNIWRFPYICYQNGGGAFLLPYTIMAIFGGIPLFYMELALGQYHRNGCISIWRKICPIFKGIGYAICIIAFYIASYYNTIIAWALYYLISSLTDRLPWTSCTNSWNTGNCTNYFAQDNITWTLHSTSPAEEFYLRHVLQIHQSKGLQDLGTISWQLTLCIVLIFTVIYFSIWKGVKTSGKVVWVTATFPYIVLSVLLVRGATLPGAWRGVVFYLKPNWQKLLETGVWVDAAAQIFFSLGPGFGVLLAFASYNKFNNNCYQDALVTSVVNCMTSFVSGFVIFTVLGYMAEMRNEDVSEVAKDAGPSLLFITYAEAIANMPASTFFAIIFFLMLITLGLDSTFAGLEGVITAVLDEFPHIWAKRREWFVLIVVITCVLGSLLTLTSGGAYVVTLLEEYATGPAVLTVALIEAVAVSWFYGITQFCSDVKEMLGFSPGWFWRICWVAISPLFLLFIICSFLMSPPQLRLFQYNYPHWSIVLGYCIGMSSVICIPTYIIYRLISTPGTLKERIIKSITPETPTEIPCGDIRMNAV
The experiment in a line: Rat brain SERT [3H]-citalopram binding. The settings on record: rat brain membranes, 0.6 nM [3H]-Citalopram, 60 min at 25° C. As for the experimental part: A rat brain without cerebellum (Zivic Laboratories, Inc.-Pittsburgh, Pa.) was homogenized in a 52.6 mM Tris pH 8/126.4 mM NaCl/5.26 mM KCl mixture and centrifuged at 1,000 rpm for 5 min. The supernatant was removed and re-centrifuged at 15,000 rpm for 30 min. Pellets were re-homogenized in a 52.6 mM Tris pH8/126.4 mM NaCl/5.26 mM KCl mixture. Membranes were incubated with 0.6 nM [^3H]-Citalopram plus/minus test compounds for 60 min at 25° C. and harvested by rapid filtration over GF/C glass fiber filters (pretreated with 0.3% polyethylenimine) followed by four washes with ice-cold buffer. Nonspecific binding was defined in the presence of 100 μM fluoxetine. IC50 values were determined by a single site curve-fitting program (GraphPad, San Diego, Calif.) and converted to Ki values based on a [^3H]-Citalopram Kd of 0.6 nM and a ligand concentration of 0.6 nM.

Assay [3] has as its target T3, human SERT (HEK293 membranes) (Homo sapiens, UniProt P31645).
T3 construct: expressed in transfected cells; host or cells: HEK293
The assay is described as follows: Human SERT 3H-citalopram binding. As to conditions: HEK293 membranes expressing human SERT, rt 1 h. Here is the method:
Homogenized HEK293 (Human Embryonic Kidney) membranes expressing the human SERT were incubated with ^3H-citalopram (SERT) at rt for 1 h in 50 mM Tris, 120 mM NaCl, 5 mM KCl (pH 7.4). Nonspecific binding was determined in the presence of 10 μM fluoxetine for the SERT. The membranes were washed and the radioactivity was counted as above. Calculations for Ki at the SERT were based on a Kd value for ^3H-citalopram and a ligand concentration of 3.1 nM.

T3 sequence (P31645 whole entry): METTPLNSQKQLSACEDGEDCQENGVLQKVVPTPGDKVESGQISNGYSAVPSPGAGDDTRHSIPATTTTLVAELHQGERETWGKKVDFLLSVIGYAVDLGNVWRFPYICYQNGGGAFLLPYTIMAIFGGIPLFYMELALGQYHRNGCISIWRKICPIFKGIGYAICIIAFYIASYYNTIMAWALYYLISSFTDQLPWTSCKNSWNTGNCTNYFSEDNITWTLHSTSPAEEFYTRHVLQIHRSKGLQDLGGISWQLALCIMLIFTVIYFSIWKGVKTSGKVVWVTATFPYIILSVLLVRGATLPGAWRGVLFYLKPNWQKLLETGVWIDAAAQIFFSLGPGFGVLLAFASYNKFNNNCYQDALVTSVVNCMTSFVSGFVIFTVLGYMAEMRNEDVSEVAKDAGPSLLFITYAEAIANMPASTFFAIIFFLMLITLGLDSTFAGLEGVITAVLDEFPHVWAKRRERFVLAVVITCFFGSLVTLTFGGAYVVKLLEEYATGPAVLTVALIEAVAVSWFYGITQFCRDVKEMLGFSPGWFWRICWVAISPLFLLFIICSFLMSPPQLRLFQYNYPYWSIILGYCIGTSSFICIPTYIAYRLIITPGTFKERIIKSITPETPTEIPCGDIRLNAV
T1 sequence (Q9Y5N1 whole entry): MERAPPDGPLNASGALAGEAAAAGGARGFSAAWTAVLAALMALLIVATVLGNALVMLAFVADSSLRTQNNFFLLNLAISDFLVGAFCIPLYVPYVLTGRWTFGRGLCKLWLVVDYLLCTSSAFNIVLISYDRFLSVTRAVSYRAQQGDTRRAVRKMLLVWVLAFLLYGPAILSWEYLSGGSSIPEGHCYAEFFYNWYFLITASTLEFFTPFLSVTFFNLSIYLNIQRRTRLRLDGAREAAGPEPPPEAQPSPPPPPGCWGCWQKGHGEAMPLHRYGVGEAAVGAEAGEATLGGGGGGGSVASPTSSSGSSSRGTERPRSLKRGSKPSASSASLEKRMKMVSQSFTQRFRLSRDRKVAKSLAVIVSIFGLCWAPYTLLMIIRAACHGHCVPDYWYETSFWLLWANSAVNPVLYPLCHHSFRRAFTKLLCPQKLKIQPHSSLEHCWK

By Ki is commonly meant a measure of affinity in units of concentration, obtained from inhibition or displacement. High values mean a looser hold on the target, low ones a stronger hold on the target. On to `CSc1ccc(C2CN(C)Cc3cc(Oc4ccnc(CN5CCCCC5)c4)ccc32)cc1` (stereo not shown) [Example 3A, 2-2-Methyl-4-(4-methylsulfanyl-phenyl)-7-(2-piperidin-1-ylmethyl-pyridin-4-yloxy)-1,2,3,4-tetrahydro-isoquinoline Trifluoroacetic Acid Salt], for which the Ki amounted to 0.323 µM in assay [1], 0.0257 µM in assay [2] and 0.0104 µM in assay [3].
On the same counts, the results for `CSc1ccc(C2CN(C)Cc3cc(Oc4ccc(CN5CCCCC5)cc4)ccc32)cc1` (stereo not shown) [Example 9, 2-Methyl-4-(4-methylsulfanyl-phenyl)-7-(4-piperidin-1-ylmethyl-phenoxy)-1,2,3,4-tetrahydro-isoquinoline] are 0.0227 µM, 0.0043 µM and 0.0038 µM.
As for `CSc1ccc(C2CN(C)Cc3cccc(Oc4ccnc(CN5CCCCC5)c4)c32)cc1` (stereo not shown) [Example 3B, 2-Methyl-4-(4-methylsulfanyl-phenyl)-5-(2-piperidin-1-ylmethyl-pyridin-4-yloxy)-1,2,3,4-tetrahydro-isoquinoline Trifluoroacetic Acid Salt], the results for the Ki in assay [1], in assay [2] and in assay [3] were 0.265 µM, 0.182 µM and 0.157 µM, respectively.
With `CSc1ccc(C2CN(C)Cc3cc(Oc4cccc(CN5CCCCC5)n4)ccc32)cc1` (stereo not shown) [Example 2, 2-Methyl-4-(4-methylsulfanyl-phenyl)-7-(6-piperidin-1-ylmethyl-pyridin-2-yloxy)-1,2,3,4-tetrahydro-isoquinoline Trifluoroacetic Acid Salt], the Ki in assay [1] amounted to 0.051 µM; in assay [2] it was 0.0117 µM; in assay [3], 0.022 µM.
With `CSc1ccc(C2CN(C)Cc3cccc(Oc4cncc(CN5CCCCC5)c4)c32)cc1` (stereo not shown) [Example 4B, 2-Methyl-4-(4-methylsulfanyl-phenyl)-5-(5-piperidin-1-ylmethyl-pyridin-3-yloxy)-1,2,3,4-tetrahydro-isoquinoline Trifluoroacetic Acid Salt], the figures for the Ki in assay [1], in assay [2] and in assay [3] were 0.511 µM, 0.174 µM and 0.262 µM, respectively.
Turning to `CSc1ccc(C2CN(C)Cc3cc(Oc4cc(CN5CCCCC5)ccn4)ccc32)cc1` (stereo not shown) [Example 5, 2-Methyl-4-(4-methylsulfanyl-phenyl)-7-(4-piperidin-1-ylmethyl-pyridin-2-yloxy)-1,2,3,4-tetrahydro-isoquinoline], the Ki in assay [1] came out at 0.0343 µM; in assay [2] it was 0.0087 µM; in assay [3] it was 0.0024 µM.
Regarding `CSc1ccc(C2CN(C)Cc3cc(Oc4nc(CN5CCOCC5)cs4)ccc32)cc1` (stereo not shown) [Example 11, 2-Methyl-4-(4-methylsulfanyl-phenyl)-7-(4-morpholin-4-ylmethyl-thiazol-2-yloxy)-1,2,3,4-tetrahydro-isoquinoline], the Ki in assay [1] turned out to be 0.201 µM.
Turning to `CSc1ccc(C2CN(C)Cc3cccc(Oc4cccc(CN5CCCCC5)c4)c32)cc1` (stereo not shown) [Example 1B, 2-Methyl-4-(4-methylsulfanyl-phenyl)-5-(3-piperidin-1-ylmethyl-phenoxy)-1,2,3,4-tetrahydro-isoquinoline Trifluoroacetic Acid Salt], the figures for the Ki in assay [1], in assay [2] and in assay [3] were 0.253 µM, 0.403 µM and 0.616 µM, respectively.
On the same counts, the results for `CSc1ccc(C2CN(C)Cc3cc(Oc4ccc(CN5CCCCC5)nc4)ccc32)cc1` (stereo not shown) [Example 8, 2-Methyl-4-(4-methylsulfanyl-phenyl)-7-(6-piperidin-1-ylmethyl-pyridin-3-yloxy)-1,2,3,4-tetrahydro-isoquinoline] are 0.0243 µM, 0.0075 µM and 0.008 µM.
On the same counts, the results for `CSc1ccc(C2CN(C)Cc3cc(Oc4ccc(CN5CCC(F)CC5)cn4)ccc32)cc1` (stereo not shown) [Example 12, 7-[5-(4-Fluoro-piperidin-1-ylmethyl)-pyridin-2-yloxy]-2-methyl-4-(4-methylsulfanyl-phenyl)-1,2,3,4-tetrahydro-isoquinoline] are 0.11 µM, 0.0143 µM and 0.0065 µM.
On the same counts, the results for `CSc1ccc(C2CN(C)Cc3cc(Oc4ccc(CN5CCOCC5)cn4)ccc32)cc1` (stereo not shown) [Example 10, 2-Methyl-4-(4-methylsulfanyl-phenyl)-7-(5-morpholin-4-ylmethyl-pyridin-2-yloxy)-1,2,3,4-tetrahydro-isoquinoline] are 0.26 µM, 0.011 µM and 0.0079 µM.
Turning to `CSc1ccc(C2CN(C)Cc3cc(Oc4ncc(CN5CCCCC5)s4)ccc32)cc1` (stereo not shown) [Example 13, 2-Methyl-4-(4-methylsulfanyl-phenyl)-7-(5-piperidin-1-ylmethyl-thiazol-2-yloxy)-1,2,3,4-tetrahydro-isoquinoline], the results for the Ki in assay [1], in assay [2] and in assay [3] were 0.0207 µM, 0.004 µM and 0.0032 µM, respectively.
On to `CSc1ccc(C2CN(C)Cc3cc(Oc4nc(CN5CCCCC5)cs4)ccc32)cc1` (stereo not shown) [Example 6, 2-Methyl-4-(4-methylsulfanyl-phenyl)-7-(4-piperidin-1-ylmethyl-thiazol-2-yloxy)-1,2,3,4-tetrahydro-isoquinoline], for which the Ki stood at 0.0207 µM in assay [1], 0.0052 µM in assay [2] and 0.0043 µM in assay [3].
For `CSc1ccc(C2CN(C)Cc3cc(Oc4cccc(CN5CCCCC5)c4)ccc32)cc1` (stereo not shown) [Example 1A, 2-Methyl-4-(4-methylsulfanyl-phenyl)-7-(3-piperidin-1-ylmethyl-phenoxy)-1,2,3,4-tetrahydro-isoquinoline trifluoroacetic acid salt] the same measures were 0.018 µM, 0.0117 µM and 0.0177 µM.
For the molecule `CSc1ccc(C2CN(C)Cc3cc(Oc4ccc(CN5CCCCC5)cn4)ccc32)cc1` (stereo not shown) [Example 7, 2-Methyl-4-(4-methylsulfanyl-phenyl)-7-(5-piperidin-1-ylmethyl-pyridin-2-yloxy)-1,2,3,4-tetrahydro-isoquinoline], the Ki in assay [1] stood at 0.0082 µM; in assay [2], 0.0045 µM; in assay [3] it was 0.0023 µM.
